In US10377763B2, “Morphinan derivative and medical usage thereof” (UNIVERSITY OF TSUKUBA, priority 2015, dated 2019):
Like-named read-outs stand apart in the source and are kept apart here.

How the values were obtained:
[1] = target: human OX1R (Homo sapiens (Human), UniProt O43613); assay: Measurement of antagonistic activity against orexin receptors (intracellular calcium, CHOOX1R cells); format: cell-based; conditions: for antagonistic activity against human OX1 receptor (in words): summary of Table 6
human OX1R, sequence (O43613 whole entry): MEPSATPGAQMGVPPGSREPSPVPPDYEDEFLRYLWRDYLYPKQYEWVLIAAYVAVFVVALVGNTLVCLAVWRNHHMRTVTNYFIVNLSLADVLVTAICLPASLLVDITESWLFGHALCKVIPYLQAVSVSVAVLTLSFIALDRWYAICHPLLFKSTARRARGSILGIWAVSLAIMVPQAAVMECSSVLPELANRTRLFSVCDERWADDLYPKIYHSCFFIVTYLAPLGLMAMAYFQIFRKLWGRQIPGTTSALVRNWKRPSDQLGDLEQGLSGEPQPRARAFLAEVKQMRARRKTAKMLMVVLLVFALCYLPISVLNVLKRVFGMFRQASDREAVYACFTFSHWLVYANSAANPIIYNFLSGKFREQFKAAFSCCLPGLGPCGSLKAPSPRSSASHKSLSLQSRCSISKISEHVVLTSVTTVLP
Experimental: (§1) The Chinese hamster ovary (CHO) cell lines CHOOX1R and CHOOX2R were established by modifying CHO cells to constantly express the NFAT-luciferase gene and either the human OX1R or human OX2R gene. Those cells were plated at 10,000 cells/well in 96-well multiplates with DMEM (manufactured by Sigma-Aldrich Co. LLC) supplemented with 5% FBS (manufactured by Thermo Scientific Inc.) and incubated at 37° C. and 5% CO2 for 48 hours. After removal of the medium, 100 μL of an assay buffer (20 mM HEPES (manufactured by Sigma-Aldrich Co. LLC), Hank's balanced salt solution (manufactured by Gibco), 0.1% BSA (manufactured by Sigma-Aldrich Co. LLC), 2.5 mM probenecid acid (manufactured by Wako Pure Chemical Industries, Ltd.), pH 7.4) containing 5 μM Fura-2AM (manufactured by Cayman Chemical Co.) was added to each well, and incubated at 37° C. and 5% CO2 for 60 minutes. After removal of the buffer containing Fura-2AM, 75 μL of the assay buffer was added to each well. Then, […] of the assay buffer containing a test compound at various concentrations and OX-A (manufactured by Peptide Institute, Inc.) was added to start the reaction. The change in intracellular calcium ion concentration induced by the reaction was evaluated by the ratio of fluorescent intensities, which were measured at a wavelength of 510 nm based on the two wavelength excitation approach using FDSS 7000 (manufactured by Hamamatsu Photonics K.K.) with fluorescence excitation at 340 nm and 380 nm. A concentration-response curve on the antagonistic activity was plotted from the values of maximal fluorescent intensity ratio determined when various concentrations of a test compound were added in the presence of […] of OX-A, where a value of maximal fluorescent intensity ratio determined by adding 300 pM of OX-A alone corresponds to 100% and a value of maximal fluorescent intensity ratio determined by adding the assay buffer alone corresponds to 0%. Based on the resulting non-linear regression curve, the 50% maximal inhibitory concentration (IC50) was calculated. Each test compound was dissolved in DMSO to a concentration of 10 mM (the final concentration of DMSO was 1%), and then diluted with the assay buffer to give a final concentration of 3.0×10^−10 M to 1.0×10^−5 M (a common ratio of 3), while OX-A was diluted to a final concentration of 300 pM. The experiment was performed in quadruplicate plates, and the results of the four independent measurements were averaged to give the value of each reaction, and then the IC50 of a sample was calculated. If the sample number was 2 or more, the averaged IC50 was used.

[2] = target: human OX2R (Homo sapiens (Human), UniProt O43614); assay: Measurement of antagonistic activity against orexin receptors (intracellular calcium, CHOOX2R cells); format: cell-based
human OX2R, sequence (O43614 whole entry): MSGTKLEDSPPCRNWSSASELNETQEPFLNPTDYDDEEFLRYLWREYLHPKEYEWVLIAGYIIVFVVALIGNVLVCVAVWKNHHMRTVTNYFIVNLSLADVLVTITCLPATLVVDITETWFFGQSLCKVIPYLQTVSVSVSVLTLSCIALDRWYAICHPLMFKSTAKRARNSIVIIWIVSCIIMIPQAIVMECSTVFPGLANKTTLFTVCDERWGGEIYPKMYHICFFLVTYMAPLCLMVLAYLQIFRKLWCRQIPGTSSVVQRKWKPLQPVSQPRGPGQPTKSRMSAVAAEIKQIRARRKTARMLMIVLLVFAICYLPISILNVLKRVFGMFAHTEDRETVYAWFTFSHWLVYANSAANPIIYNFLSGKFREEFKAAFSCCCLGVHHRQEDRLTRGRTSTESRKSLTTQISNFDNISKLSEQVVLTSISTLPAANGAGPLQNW
Experimental: as §1

[3] = CHOOX1R cells, 300 pM OX-A, Fura-2 calcium, read-out: OX1 (IC50)
[4] = CHOOX2R cells, 300 pM OX-A, Fura-2 calcium, read-out: OX2 (IC50)

Row | SMILES | IC50 [1, 3] [nM] | antagonistic activity against human OX1 receptor (in words) [1] | IC50 [2, 4] [nM] | IC50 [1] [nM] | IC50 [2] [nM]
1 | CN(C(=O)/C=C/c1ccoc1)[C@@H]1CC[C@@]2(O)[C@H]3Cc4ccc(O)c5c4[C@@]2(CCN3CC2CC2)[C@H]1O5.Cl [Comparative Example 1, (E)-N-[(4R,4aS,7R,7aR,12bS)-3-(cyclopropylmethyl)-4a,9-dihydroxy-2,3,4,4a,5,6,7,7a-octahydro-1H-4,12-methanobenzofuro[3,2-e]isoquinolin-7-yl]-3-(furan-3-yl)-N-methylacrylamide hydrochloride, reference compound] | 1650 | very weak antagonistic activity | > 10000 |  | 
2 | COc1ccc2c3c1O[C@H]1[C@H](N(C)Cc4ccccc4)CC[C@@]4(O)[C@@H](C2)N(C(=O)OC(C)(C)C)CC[C@]314 [Comparative Example 2, tert-butyl(4R,4aS,7R,7aR,12bS)-7-[benzyl(methyl)amino]-4a-hydroxy-9-methoxy-1,2,4,4a,5,6,7,7a-octahydro-3H-4,12-methanobenzofuro[3,2-e]isoquinolin-3-carboxylate, reference compound] | 2850 | very weak antagonistic activity | > 10000 |  | 
3 | COc1ccc2c3c1O[C@H]1[C@H](N(C)C(=O)/C=C/c4ccoc4)CC[C@@]4(O)[C@@H](C2)N(S(=O)(=O)c2ccccc2)CC[C@]314 [Example 1, (E)-3-(furan-3-yl)-N-[(4R,4aS,7R,7aR,12bS)-4a-hydroxy-9-methoxy-3-(phenylsulfonyl)-2,3,4,4a,5,6,7,7a-octahydro-1H-4,12-methanobenzofuro[3,2-e]isoquinolin-7-yl]-N-methylacrylamide] |  | potent and selective antagonistic activity |  | 82.8 | > 10000
4 | COc1ccc2c3c1O[C@H]1[C@H](N(C)C(=O)/C=C/c4ccoc4)CC[C@@]4(O)[C@@H](C2)N(S(=O)(=O)c2ccccc2C)CC[C@]314 [Example 2] | 30 | potent and selective antagonistic activity | > 10000 |  | 
5 | COc1ccc2c3c1O[C@H]1[C@H](N(C)C(=O)/C=C/c4ccoc4)CC[C@@]4(O)[C@@H](C2)N(S(=O)(=O)c2cccc(C)c2)CC[C@]314 [Example 3] | 24 | potent and selective antagonistic activity | > 10000 |  | 
6 | COc1ccc2c3c1O[C@H]1[C@H](N(C)C(=O)/C=C/c4ccoc4)CC[C@@]4(O)[C@@H](C2)N(S(=O)(=O)c2ccc(C)cc2)CC[C@]314 [Example 4] | 162 | potent and selective antagonistic activity | > 10000 |  | 
7 | COc1ccc2c3c1O[C@H]1[C@H](N(C)C(=O)/C=C/c4ccoc4)CC[C@@]4(O)[C@@H](C2)N(S(=O)(=O)c2ccccc2C(F)(F)F)CC[C@]314 [Example 5] | 419 | potent and selective antagonistic activity | > 10000 |  | 
8 | COc1ccc2c3c1O[C@H]1[C@H](N(C)C(=O)/C=C/c4ccoc4)CC[C@@]4(O)[C@@H](C2)N(S(=O)(=O)c2ccccc2[N+](=O)[O-])CC[C@]314 [Example 8] | 144 | potent and selective antagonistic activity | > 10000 |  | 
9 | COc1ccc2c3c1O[C@H]1[C@H](N(C)C(=O)/C=C/c4ccoc4)CC[C@@]4(O)[C@@H](C2)N(S(=O)(=O)c2ccccc2C#N)CC[C@]314 [Example 11] | 49.1 | potent and selective antagonistic activity | > 10000 |  | 
10 | COc1ccc2c3c1O[C@H]1[C@H](N(C)C(=O)/C=C/c4ccoc4)CC[C@@]4(O)[C@@H](C2)N(S(=O)(=O)c2cccc(F)c2)CC[C@]314 [Example 15] | 112 | potent and selective antagonistic activity | > 10000 |  | 
11 | COc1ccc2c3c1O[C@H]1[C@H](N(C)C(=O)/C=C/c4ccoc4)CC[C@@]4(O)[C@@H](C2)N(S(=O)(=O)c2cccc(Cl)c2)CC[C@]314 [Example 18] | 195 | potent and selective antagonistic activity | > 10000 |  | 
12 | COc1ccc2c3c1O[C@H]1[C@H](N(C)C(=O)/C=C/c4ccoc4)CC[C@@]4(O)[C@@H](C2)N(S(=O)(=O)c2ccccc2Br)CC[C@]314 [Example 20] | 56.2 | potent and selective antagonistic activity | > 10000 |  | 
13 | COc1ccc2c3c1O[C@H]1[C@H](N(C)C(=O)/C=C/c4ccoc4)CC[C@@]4(O)[C@@H](C2)N(S(=O)(=O)c2cccc(Br)c2)CC[C@]314 [Example 21] | 200 | potent and selective antagonistic activity | > 10000 |  | 
14 | COc1ccc2c3c1O[C@H]1[C@H](N(C)C(=O)/C=C/c4ccoc4)CC[C@@]4(O)[C@@H](C2)N(S(=O)(=O)c2c(C)cc(C)cc2C)CC[C@]314 [Example 23] | 121 | potent and selective antagonistic activity | > 10000 |  | 
15 | COc1ccc2c3c1O[C@H]1[C@H](N(C)C(=O)/C=C/c4ccoc4)CC[C@@]4(O)[C@@H](C2)N(S(=O)(=O)c2cccc5cccnc25)CC[C@]314 [Example 25] | 198 | potent and selective antagonistic activity | > 10000 |  | 
16 | CCCCS(=O)(=O)N1CC[C@]23c4c5ccc(OC)c4O[C@H]2[C@H](N(C)C(=O)/C=C/c2ccoc2)CC[C@@]3(O)[C@H]1C5 [Example 27] | 87.8 | potent and selective antagonistic activity | > 10000 |  | 
17 | COc1ccc2c3c1O[C@H]1[C@H](N(C)C(=O)/C=C/c4ccoc4)CC[C@@]4(O)[C@@H](C2)N(S(=O)(=O)C2CC2)CC[C@]314 [Example 28] | 101 | potent and selective antagonistic activity | > 10000 |  | 
18 | COc1ccc2c3c1O[C@H]1[C@H](N(C)C(=O)/C=C/c4ccoc4)CC[C@@]4(O)[C@@H](C2)N(S(=O)(=O)c2ccc(N(C)C)cc2)CC[C@]314.Cl [Example 32] | 11.7 | potent and selective antagonistic activity | > 10000 |  | 
19 | COc1ccc2c3c1O[C@H]1[C@H](N(C)C(=O)/C=C/c4ccoc4)CC[C@@]4(O)[C@@H](C2)N(C(=O)C2CC2)CC[C@]314 [Example 34] | 259 | potent and selective antagonistic activity | > 10000 |  | 
20 | COc1ccc2c3c1O[C@H]1[C@H](N(C)C(=O)/C=C/c4ccoc4)CC[C@@]4(O)[C@@H](C2)N(C(=O)c2ccc(C)cc2)CC[C@]314 [Example 35] | 571 | potent and selective antagonistic activity | > 10000 |  | 
21 | COc1ccc2c3c1O[C@H]1[C@H](N(C)C(=O)C=Cc4ccccc4)CC[C@@]4(O)[C@@H](C2)N(S(=O)(=O)c2ccccc2)CC[C@]314 [Example 38, N-[(4R,4aS,7R,7aR,12bS)-4a-hydroxy-9-methoxy-3-(phenylsulfonyl)-2,3,4,4a,5,6,7,7a-octahydro-1H-4,12-methanobenzofuro[3,2-e]isoquinolin-7-yl]-N-methylcinnamide] | 128 | potent and selective antagonistic activity | > 10000 |  | 
22 | COc1ccc2c3c1O[C@H]1[C@H](N(C)C(=O)Nc4ccccc4)CC[C@@]4(O)[C@@H](C2)N(S(=O)(=O)c2ccccc2)CC[C@]314 [Example 41] | 159 | potent and selective antagonistic activity | > 10000 |  | 
23 | COc1ccc2c3c1O[C@H]1[C@H](N(C)C(=O)NCc4ccccc4)CC[C@@]4(O)[C@@H](C2)N(S(=O)(=O)c2ccccc2)CC[C@]314 [Example 42] | 688 | potent and selective antagonistic activity | > 10000 |  | 
